Here are results for 2 compounds from PMC9838834, “Improvement of Antialveolar echinococcosis efficacy of novel Albendazole-Bile acids Derivatives with Enhanced Oral Bioavailability” (PLOS Neglected Tropical Diseases, 2023).

The nature of series [1]: Stability in rat plasma (UHPLC-MS method validation, S4 Table). Type of series: in vitro ADME. Here is the method:
A Dionex Ultimate 3000 RSLC system (Thermofisher) combined with an Accucore aQ C18 column (150 mm×2.1 mm, 2.6 μm, Thermo fisher) was used in the sample separation process. The separation speed was set at […] for all gradients. 1 μL of injection volume and a constant temperature of (25 ± 1°C were set for the column. The eluents were A, water with 0.1% formic acid (v/v) and B, methanol; the gradient program was as follows: 0–6 min, 8–40% B; 6–8 min, 40–100% B; 8–10 min, 100% B; 10–11 min, 100–8% B; 11–13 min, 8% B.
Heated electro-spray ionization (HE-SI) was paired with a Q-Orbitrap MS in the MS analysis. The flow rate of auxiliary, sheath and sweep gas was set at 35, 10, and 1 (arbitrary unit), respectively. A full MS-ddMS^2 mode was used to perform the analysis. The damping gas in the C-trap and nitrogen was used to stabilize the spraying. Temperatures of 350°C and 320°C were set and kept for the auxiliary gas heater and capillary. Under negative mode, 3.0 kV was adopted for the spray voltage, 60 V was used for the S-lens RF level, 50 ms was used for the maximum injection time, and 3.0 ^e6 was set as the automatic gain control target. Full MS-ddMS^2 scan ranged from 150.0000 to 800.0000 m/z. Precise molecular weight […] was used for qualitative analysis, the corresponding peak area was used for quantitative analysis, and MS^2 fragments were used for further qualitative analysis.
Plasma samples were thawed at room temperature, and 100 μL was added to an equal volume of mass spectrometry grade methanol, vortexed for 1 min, and centrifuged again at 13000 rpm for 5 min. 100 μL of the supernatant were added to 100 μL of 200 ng/mL mebendazole IS solution, vortexed for 1 min, and centrifuged again at 13000 rpm for 5 min. The resulting sample was injected by UHPLC-HR-ESI-MS with an injection volume of 1 μL. The pharmacokinetic study of SD rats was performed according to the standards recommended by the "Guidelines for the Care and Use of Laboratory Animals" (Animal Laboratory Resources Institute, 1995) and was approved by the Institutional Animal Care and Use Committee of Qinghai University.
Supplementary file pntd.0011031.s004.xlsx: S4 Table The stability for the determination of total alkaloid in rat plasma. (XLSX) Click here for additional data file.

The conditions of series [2]: background statement; cited from earlier work.
For series [3], the system named is alveolar echinococcosis. Details: method as in PMID 18938096. The following applies: AE patients; cited from earlier work.
The nature of series [4]: Determination of equilibrium solubility (HPLC). Type of series: physicochemical. Particulars: 48 h, pH 7.4. Here is the method:
An excess amount of ABZ-BA and ABZ were equilibrated in sodium phosphate buffer, pH 7.4, at 37°C for 48 h. The supernatant was separated from excess solid in solution by ultracentrifugation at 40000 rpm. Subsequently, the supernatant was diluted, and the solution concentration was determined using high-performance liquid chromatography (HPLC) (Shimadzu LC- 20AT, Kyoto, Japan). The chromatographic separation was performed with Diamonsil C18 (4.6×150 mm, 5 μm, Waters, Massachusetts, USA). ABZ-BA and ABZ were detected by ultraviolet (UV) absorbance detection at a wavelength of 240 nm. The mobile phase was methanol /water (70/30 v/v) and the flow rate was 1 mL/min. The injection volume was 20 μL.

For series [5], the system named is protoscolex (PSCs). The series is described as follows: Alkaline phosphatase in supernatant of PSC culture medium. Type of series: cell-based, E. multilocularis. Particulars: 5 days after treatment, same concentration as ABZ / ABZ-SO.
In series [6] the test system is protoscolex (PSCs). The series is described as follows: Caspase 3 in supernatant of PSC culture medium. Type of series: cell-based, E. multilocularis. The following applies: 5 days after treatment.
Series [7] has as its system secondary hepatic alveolar echinococcosis (E. multilocularis). The series is described as follows: In vivo therapeutic efficacy in an in-situ AE animal model (lesion volume). The following applies: AE model rats. Here is the method:
Six-week-old […] weighing 200-250g were purchased from a market (Weitong Lihua Laboratory Animal Technology Co., Ltd, Beijing, China). The rats were injected with protoscolex (PSC) suspension (1000–2000) PSCs/mL×0.1 mL/each using the open-abdominal direct liver puncture method. The modeling quality was confirmed by Mindray’s Resona7 color Doppler ultrasound system. The lesion volume was calculated by the length (X) and width (Y) of its ultrasound transverse section and the width (Z) of its longitudinal section, X·Y·Z. Rats with relatively uniform lesion volumes were selected as model animals for further experiments (Fig 1). All animal-related experiments were approved by the Animal Care and Utilization Committee (IACUC) of Qinghai University. The animals were housed in a room with controlled temperature (25 ± 2°C) with light-cycled (12 h light/dark cycle). Food and water were provided ad libitum.
At the 16th week after establishing an experimental secondary AE in rats, we divided the model rats into three groups. The first is the control group, with six infected rats were received with CMC-Na of 0.9% saline. In the second group, rats were received with 0.2 mL of Albenda suspension. In the third group, rats were received with 0.2 mL of ABZ-BA suspension. The three groups were administered by gavage with the dosage of 25 mg/kg/d, which was calculated according to the equivalent dose convert ratio between humans and animals based on the surface body area of humans. After a 30-day, once-daily oral administration, the liver tissue lesions were obtained and weighed to evaluate the cyst inhibition rate after one month of administration.

Series [8] deals with Hep-G2 cell line. The series is described as follows: Cytotoxicity in Hep-G2 cell line. The class given is cell-based, human. The following applies: ABZ-BA with different carbon chain lengths (C1, C4 linker), data not shown. The text has this: Since this part of data will be published in other manuscripts, it is not shown in this manuscript.
Where [9] appears, read: nominal 1.58 (ABZ-BA) / 1.57 (ABZ) ng/mL.
Where [10] appears, read: nominal 25.25 (ABZ-BA) / 25.18 (ABZ) ng/mL.
The mark [11] stands for this setting: nominal 101 (ABZ-BA) / 100.78 (ABZ) ng/mL.
Setting [12] is: after 1 month of oral administration.

Each structure is given as a SMILES string.

As for `CCCSc1ccc2nc(NC(=O)OC)[nH]c2c1` [ABZ, Albendazole], in series [1] (setting [9]), the “Measured (mean ± SD), 4℃ for 24 h” value is on record as 1.53 ± 0.08 ng/mL; the “Measured (mean ± SD), Room temperature for 24 h” value is on record as 1.56 ± 0.13 ng/mL; the “Measured (mean ± SD), Three freeze” value is recorded as 1.59 ± 0.15 ng/mL; the “Measured (mean ± SD), at -80℃ for 15 days” value is given as 1.56 ± 0.07 ng/mL. Besides, in series [1] (setting [10]), the “Measured (mean ± SD), 4℃ for 24 h” value came out at 25.65 ± 0.53 ng/mL; the “Measured (mean ± SD), Room temperature for 24 h” value was found to be 24.87 ± 0.34 ng/mL; the “Measured (mean ± SD), Three freeze” value was determined as 25.56 ± 0.56 ng/mL; the “Measured (mean ± SD), at -80℃ for 15 days” value is on record as 25.34 ± 1.18 ng/mL. In addition, in series [1] (setting [11]), the “Measured (mean ± SD), 4℃ for 24 h” value was determined as 104.63 ± 2.81 ng/mL; the “Measured (mean ± SD), Room temperature for 24 h” value stood at 98.90 ± 3.53 ng/mL; the “Measured (mean ± SD), Three freeze” value is given as 106.20 ± 1.36 ng/mL; the “Measured (mean ± SD), at -80℃ for 15 days” value was found to be 108.56 ± 1.18 ng/mL. Besides, in series [2], the oral bioavailability was below 5%. Also, the “clinical improvement after administration” value in series [3] is reported as “two-thirds of AE patients show moderate improvement”.

In the case of `CCCSc1ccc2[nH]c(NC(=O)NCCCCOC(=O)CCC(C)C3CCC4C5C(O)CC6CC(O)CCC6(C)C5CC(O)C34C)nc2c1` (centres unmarked) [ABZ-BA], in series [4], the “equilibrium solubility of ABZ-BA relative to ABZ in vitro” value worked out at 4 fold and the “solubility of ABZ-BA relative to ABZ” value is given as “about 12 times”. Moreover, in series [5], the “ALP in supernatant of PSC culture medium vs positive control group” value is listed as “no significant difference”. For the same compound, in series [6], the “content of caspase 3 in supernatant of PSC culture medium vs positive control group” value is “significantly higher”. Besides, the “apoptotic effect on PSCs, dependence on concentration” value in series [6] (13.45-53.8 μg/mL) is given as “concentration-dependent”. This compound also came in with a lesion volume in series [7] (25 mg/kg/d by gavage, after 4 weeks of administration, n = 6, ultrasound X·Y·Z) of 0.35±0.18 cm^3. Besides, in series [7] (setting [12]), the “effect of ABZ-BA group relative to Albenda” value stood at 2.7 fold and the therapeutic effect entry is reported as “significant therapeutic effect”. For the same compound, the “cytotoxicity compared with ABZ” value in series [8] is listed as “the same cytotoxicity as ABZ”.
